The record followed here is article PMC5509420 (Molecular Biology of the Cell, 2017).

Test [1] has as its target T1, Sse1 (Saccharomyces cerevisiae, UniProt P32589, F439L/L433A/M441A/N434P).
T1 sequence (P32589 2-693 L433A/N434P/F439L/M441A): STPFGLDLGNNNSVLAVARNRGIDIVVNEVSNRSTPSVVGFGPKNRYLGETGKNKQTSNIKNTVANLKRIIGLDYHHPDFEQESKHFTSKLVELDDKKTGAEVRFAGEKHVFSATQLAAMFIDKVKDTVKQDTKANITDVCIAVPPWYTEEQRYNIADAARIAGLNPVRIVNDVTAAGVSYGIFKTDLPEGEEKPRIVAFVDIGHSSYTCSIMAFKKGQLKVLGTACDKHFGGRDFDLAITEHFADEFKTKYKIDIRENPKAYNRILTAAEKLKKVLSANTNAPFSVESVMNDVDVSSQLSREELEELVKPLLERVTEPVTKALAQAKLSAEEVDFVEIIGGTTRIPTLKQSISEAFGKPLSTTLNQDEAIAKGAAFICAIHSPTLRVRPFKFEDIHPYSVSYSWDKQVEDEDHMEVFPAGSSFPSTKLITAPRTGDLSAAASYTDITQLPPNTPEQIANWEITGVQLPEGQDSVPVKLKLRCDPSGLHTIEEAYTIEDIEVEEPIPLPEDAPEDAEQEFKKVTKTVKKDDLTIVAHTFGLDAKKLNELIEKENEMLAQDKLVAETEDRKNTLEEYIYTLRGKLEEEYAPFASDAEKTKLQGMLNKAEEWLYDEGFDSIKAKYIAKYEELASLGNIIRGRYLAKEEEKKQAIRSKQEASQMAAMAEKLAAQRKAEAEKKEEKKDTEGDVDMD
Nature of the test: fluorescence polarization/anisotropy, saturation binding one-site fit. (Polarisation of emitted light reports the rotation of a fluorescent probe.)

Test [2] has as its target T2, Sse1 (Saccharomyces cerevisiae, UniProt P32589).
T2 sequence (P32589 2-693): T1 sequence (P32589 2-693 L433A/N434P/F439L/M441A) with A432L, P433N, L438F, A440M
Described as above.

Positions count from the first letter of the chain named.

For orientation: Kd means the free concentration of one partner at which half of the binding sites on the other are occupied at equilibrium, for simple one-to-one binding. A low value points to a tighter complex. Turning to `O=C(NCCCCCCNc1ncnc2c1ncn2[C@@H]1O[C@H](COP(=O)(O)OP(=O)(O)OP(=O)(O)O)[C@@H](O)[C@H]1O)c1ccc2c(c1)C(=O)OC21c2ccc(O)cc2Oc2cc(O)ccc21` [N^6-(6-amino)hexyl-ATP-5-FAM], the Kd stood at 12.1 ± 1.9 µM on Sse1 [1] and 8.6 ± 1.4 µM on Sse1 [2].
